{
  "source": "patent US20240247031A1",
  "about": "“COMPOSITION FOR TREATING CANCER CONTAINING TELOMERASE-TARGETING GNRH ANTAGONIST-DERIVED PEPTIDE HS1002” (Research & Business Foundation Sungkyunkwan University, priority 2023, published 2024)",
  "key": {"LNCaP": {"tested_on": "LNCaP", "assay": "cells", "type": "cell-based, human", "conditions": "human, 48 h", "procedure": "(§1) To evaluate anticancer activities of the produced peptides on various types of cancer cells, MTT analysis was performed. Human prostate cancer cell lines (LNCaP, PC3, and DU145), human breast cancer cell lines (MDA-MB-231 and MCF-7), lung cancer cell line (A549), and ovarian cancer cell line (SKOV3) were cultured in RPMI media supplemented with 1% penicillin/streptomycin and 1% fetal bovine serum (all from Life Technologies, Grand Island, NY). The cells were seeded in 96-well plates containing 100 μL of growth media for 24 h. The media were removed, and then 100 μL of the peptide (solvent DPBS) at each concentration was added to each well and incubated at 37° C. for 48 h. After incubation for 48 h, 100 μL of MTT reagent was added to each well. The cells were incubated at 37° C. for 4 h, and then the supernatant was removed. Formazan crystals were dissolved in 100 μL of DMSO with gentle stirring at 37° C. for 10 min. The absorbance per well was measured at 540 nm using a VERSA max microplate reader (Molecular Devices Corp.)."}, "MCF-7": {"tested_on": "MCF-7", "assay": "cells", "type": "cell-based, human", "conditions": "human, 48 h", "procedure": "as §1"}, "[1]": {"tested_on": "prostate cancer cell line (LNCaP)", "assay": "MTT cytotoxicity comparison of peptides at the same concentration (FIG. 6)", "type": "cell-based, human", "conditions": "300 μM, 48 h, 1% FBS, among GV1001, GnRH, HS1001, HS1002", "procedure": "The prostate cancer cell line (LNCaP), in which the reactivity of HS1002 to hTERT had been best, were used to investigate the cytotoxic effects of GV1001, GnRH, HS1001, and HS1002 under conditions of 1,500 cells/well, 1% FBS, and 48-hour treatment. The prostate cancer cells were seeded at 1.5×10^3 cells per well in a 96-well plate, and then incubated in an incubator for one day. Thereafter, the cells were treated with HS1001, HS1002, GV1001, and GnRH diluted to (300, 200, 100, and 50 μM) in fresh media. After 48-h incubation, an MTT reagent (3-(4,5-dimethylthiazol-2-yl)-2,5-diphenyltetrazolium bromide, Sigma-Aldrich, M6494) was added, and subsequently the plate was shielded from light and kept in an incubator for 3 h. Thereafter, the MTT solution was discarded, and 100 μL of dimethyl sulfoxide (DMSO, 99.9%, HPLC grade, DAEJUNG CHEMICALS & METALS, 3047-2304) was added to each well, and subsequently the plate was shielded from light and then left at room temperature for 20 min. After that, the absorbance was measured at 540 nm using a microplate reader."}, "[2]": {"tested_on": "tumor-infiltrating CD45+ and CD8+ cells in MC38 tumor", "assay": "Flow cytometry of tumor infiltrating leukocytes in MC38 tumors (FIG. 20)", "type": "in vivo, mouse", "conditions": "MC38 tumor tissue, vs vehicle", "source_text": "A mouse tumor dissociation kit (Cat. 130-096-730, Miltenyi Biotec, Bergisch Gladbach, Germany) was used for tumor digestion according to the manufacturer's protocol. Briefly, the tumor was cut into small fragments with RPMI 1640 containing enzymes D, R, and A. After filtration through a 70 μm cell strainer, red blood cells were removed using RBC lysis buffer (Cat. 420301, BioLegend, San Diego, CA, USA). The acquired single-cell suspension was used for further analysis. For analysis of intracellular cytokines, the cell suspension was incubated in the presence of a cell stimulation cocktail (with a protein transport inhibitor) (Cat. 00-4975-93, Invitrogen, eBioscience) for 5 h and subjected to fixation and permeabilization using an intracellular fixation and permeabilization buffer set (Cat. 88-8824-00, Thermo Fisher) according to the manufacturer's protocol. Following the staining process, samples were analyzed with Novocyte (ACEA Biosciences, San Diego, CA, USA).\nCTLs are the key mediators of granzyme- and perforin-mediated cancer cell destruction during cancer immunosurveillance and immunotherapy. […] To investigate the effect of HS1002 on tumor-infiltrating CD8^+ T cells in MC38 tumor tissue, flow cytometric analysis was used. Flow cytometric analysis confirmed that HS1002 elevated the total number of tumor-infiltrating CD45+ cells and the production of granzyme B and IFN-γ in CD8^+ cells and in MC38 tumor tissue (FIG. 20A). To assess the effect of HS1002 on immune response-related gene expression in a syngeneic mouse model, gene expression analysis was conducted by profiling the transcriptomes of the tumor. A total of 49,196 genes were analyzed in tumor tissues, and genes with a fold change exceeding 1.5 were included for further analysis with statistical significance at p<0.05."}},
  "data": [
    {"smiles": "CCNC(=O)[C@@H]1CCCN1C(=O)[C@@H](NC(=O)[C@H](Cc1ccccc1)NC(=O)[C@H](CCCNC(=N)N)NC(=O)[C@H](CC(C)C)NC(=O)[C@H](CCCNC(=N)N)NC(=O)[C@H](Cc1ccc(O)cc1)NC(=O)[C@H](CO)NC(=O)[C@H](Cc1c[nH]c2ccccc12)NC(=O)[C@H](Cc1c[nH]cn1)NC(=O)[C@@H]1CCC(=O)N1)[C@@H](C)CC", "note": "[HS1002]", "values": [
      {"measurement": "Cytotoxicity (IC50) LNCaP", "setting": "LNCaP", "result": "6.83 ± 0.72", "unit": "µg/mL"},
      {"measurement": "Cytotoxicity (IC50) MCF-7", "setting": "MCF-7", "result": "53.31 ± 1.79", "unit": "µg/mL"},
      {"measurement": "cytotoxicity to prostate cancer cells", "setting": "[1]", "result": "cytotoxicity to prostate cancer cells was highest"},
      {"measurement": "production of IFN-γ in CD8+ cells", "setting": "[2]", "result": "elevated"},
      {"measurement": "production of granzyme B in CD8+ cells", "setting": "[2]", "result": "elevated"},
      {"measurement": "total number of tumor-infiltrating CD45+ cells", "setting": "[2]", "result": "elevated"}
    ]}
  ]
}
